These results are taken from the OPERA property sets (Mansouri et al. 2018).

The term logP denotes a log measure of how a compound divides between an organic and an aqueous phase. High values mean a more lipophilic compound, low ones a more hydrophilic compound.

SMILES strings stand for the structures.

With `Cc1ccc(Cl)c(NS(=O)(=O)c2nc(C)n(-c3ccccc3)n2)c1Cl`, the logP worked out at 4.4.

As for `CCc1ncc([N+](=O)[O-])n1CCNC(=S)OC`, the logP amounted to 1.46.

`CC(=O)C1CCC2C3CC(C)C4=CC(=O)CCC4(C)C3C(=O)CC12C` (stereo not given) yielded a logP of 2.75.

Regarding `COCC(C)n1ccc(=O)c(O)c1C` (stereo not given), the logP was -0.26.

For the compound `CCCCn1ccc(=O)c(O)c1C`, the logP was 0.7.

Regarding `CNC(=O)NC(=O)C(C)(C(=O)OC)C1C=CCCC1` (stereo not given), the logP is 1.75.

Compound `Clc1ccc(-c2ccc(Cl)c(Cl)c2Cl)cc1Cl` showed a logP of 6.79.

For the compound `CNC(=O)N(C)c1nnc(C(F)(F)F)s1`, the logP amounted to 1.85.

For `COC(=O)Nc1nc2cc(C(=O)c3ccccc3)ccc2[nH]1`, the logP worked out at 2.83.

Regarding `Cc1cc(O)c(N)nn1`, the logP is -0.85.

`NCc1ccccc1Sc1ccccc1CO` returned a logP of 2.39.

For the compound `CCOC(=O)C=C1NC(=O)C(N2CCCCC2)S1` (stereo not given), the logP amounted to 2.34.

Take `CC(=O)Nc1ccn(C2OC(CO)C(O)C2O)c(=O)n1` (stereo not given): the logP was -1.35.

The compound `CCOC(=O)C1(c2ccccc2)CCN(CCC(O)c2ccccc2)CC1` (stereo not given) returned a logP of 4.04.

`CS(=O)(=O)c1ccc(OCC(=O)O)cc1`: the logP came to 0.06.

In the case of `O=c1[nH]c(=S)ccn1[C@H]1CC[C@@H](CO)O1`, the logP is -0.21.

In the case of `Cc1c(O)ccc(O)c1C`, the logP stood at 1.36.

`CCCCCCn1ccc(=O)c(O)c1C` had a logP of 1.9.

Turning to `CN(C)CCN(Cc1cccs1)c1ccccn1`, the logP was found to be 2.87.

`Cc1ccccc1C=O` showed a logP of 2.26.

Take `NC1C2CCC1c1ccc(C(F)(F)F)cc1C2` (stereo not given): the logP stood at 3.54.

Turning to `Cc1nn(-c2ccccc2)c(Nc2ccc(C(F)(F)F)cc2)c1[N+](=O)[O-]`, the logP amounted to 3.89.

In the case of `Clc1ccc(-c2ccc(Cl)cc2)cc1`, the logP is 5.23.

For the compound `c1cc(CN2CCCCC2)cc(OCCCNc2nc3ccccc3s2)c1`, the logP amounted to 5.41. This logP and that of the compound before are within 0.2 log units of each other.

Regarding `CCc1c(O)c(=O)ccn1CCO`, the logP is -0.66.

Compound `CCC(=O)OCOC(=O)c1cn(CC)c2nc(C)ccc2c1=O` returned a logP of 1.7.

In turn, `CN1CC(O)CN(C)C1=Nc1ncc([N+](=O)[O-])s1` (stereo not given) came in with a logP of 0.16.

With `CCN(CC)C(=O)CCn1ccc(=O)c(O)c1C`, the logP is -0.36.

With `COc1ccc(-c2nc3ncc(N)cc3[nH]2)c(OC)c1`, the logP is 1.62.

Compound `COCN(C#N)C1CC(OC2CC(O)(C(C)=O)Cc3c(O)c4c(c(O)c32)C(=O)c2c(OC)cccc2C4=O)OC(C)C1O` (stereo not given) had a logP of 2.64.

Compound `CC(=O)Nc1nc(=O)cc(-c2ccc([N+](=O)[O-])o2)s1` had a logP of 1.01.

In the case of `CCOP(=S)(OCC)Oc1nc(Cl)c(Cl)cc1Cl`, the logP came to 4.96.

`CCOc1ccc(OCC(OC(=O)n2ccnc2)C(C)(C)C)cc1` (stereo not given) registered a logP of 3.86.

Turning to `O=C1NC(=O)C(Cc2ccccc2)(Cc2ccccc2)N1`, the logP worked out at 2.46.

Compound `Cc1cc(O)ccc1O` yielded a logP of 0.91.

The compound `O=c1[nH]c2cc(Cl)ccc2n1C1CCN(CCCC(c2ccc(F)cc2)c2ccc(F)cc2)CC1` came in with a logP of 7.1.

Compound `NC(=O)c1cc2ccccc2[nH]1` returned a logP of 1.61.

`CNC(=O)c1cccc(Oc2ccccc2)c1` yielded a logP of 2.86.

Regarding `NCC1(CC(=O)O)CCCCC1`, the logP was -1.1.

With `Cc1ccc(OCC(OC(=S)n2ccnc2)C(C)(C)C)cc1` (stereo not given), the logP was determined as 4.66.

Compound `CCCCCCCCOc1ccc(NC(=O)OCCN2CCOCC2)cc1` showed a logP of 4.8.

Consider `NS(=O)(=O)c1cc2c(cc1Cl)NC(c1ccccc1)=NS2(=O)=O`, for which the logP was found to be 1.4.

The compound `CCCC(CC)C(=O)O` (stereo not given) came in with a logP of 2.23.

As to `Nc1c(Cl)c(Cl)c(Cl)c(Cl)c1Cl`, the logP was 4.82.

In turn, `O=C(Nc1ccn(C2CC(O)C(CO)O2)c(=O)n1)c1ccccc1` (stereo not given) had a logP of 0.67.

`CCCCCn1ccc(=O)c(O)c1C` registered a logP of 1.24.

As to `O=CNCC#CCC(NC(=O)C(Cc1ccc2ccccc2c1)Cc1cccc2ccccc12)C(=O)NC(CC1CCCCC1)C(O)CC(=O)NCCN1CCOCC1` (stereo not given), the logP turned out to be 5.44.

`O=C(NN1CC=CCC1)C1CC1`: the logP came out at 1.12.

`O=c1[nH]c(=O)n(C2OC(CO)CC2F)cc1F` (stereo not given): the logP was -0.72.

Consider `O=c1[nH]c(=S)ccn1[C@H]1C=C[C@@H](CO)O1`, for which the logP was -0.28.

The compound `COC(=O)c1ccccc1O` had a logP of 2.55.

On to `NC(=O)c1cnc2n(c1=O)CCCC2`, for which the logP was -0.38.

Regarding `CNC12CC(O)CCC1CCc1ccccc12` (stereo not given), the logP was found to be 2.37.

Turning to `CC(=O)c1ccc2cc(C(C)C(=O)OCC(N)=O)ccc2c1` (stereo not given), the logP is 2.06.

On to `CN1CC(C)(C)C(=O)c2ccccc21`, for which the logP came out at 2.72.

The compound `Cc1cccn2c(=O)ccnc12` had a logP of 0.79.

Turning to `Nc1ncn(C2OC(CO)C(O)C2O)c(=O)n1` (stereo not given), the logP was -2.17.

In turn, `CCC1(c2ccccc2)NC(=O)N(C)C1=O` (stereo not given) yielded a logP of 1.69.

`CCCC(=O)N1CCCC1=O` came in with a logP of 1.18.

`NS(=O)(=O)c1cc2c(cc1Cl)NC(C(Cl)(Cl)Cl)NS2(=O)=O` (stereo not given) had a logP of 0.82.

For `CCn1cc(C(=O)O)c(=O)c2cc3c(cc21)OCO3`, the logP came to 0.94.

`CN(Cc1ccc(Br)cc1)N=O`: the logP is 1.57.

Take `CNC(=O)NC(=O)C(C)(C(=O)OCOC)C1=CCCCC1` (stereo not given): the logP is 1.8.

The compound `CSc1ncnc2c1ncn2[C@@H]1O[C@H](CO)[C@@H](O)[C@H]1O` returned a logP of 0.09.

The compound `COC(=O)Nc1nc2cc(C(=O)c3ccccc3)ccc2n1C(=O)OC` gave a logP of 2.47.

As for `CN(C)C(=O)OCc1cccc([N+](=O)[O-])c1`, the logP came to 1.98.

With `O=C1CN=C(c2ccccc2)c2cc(Cl)ccc2N1CC(F)(F)F`, the logP is 3.97.

Take `CCOC(=O)C1=C(C)NC(C)=C(C(=O)OC)C1c1cccc(Cl)c1Cl` (stereo not given): the logP was 3.86.

For `CCCCNC(=O)CCn1ccc(=O)c(O)c1C`, the logP was -0.1.

Turning to `CCC(C(=O)OCc1ccccc1C)C(CO)Cc1cncn1C` (stereo not given), the logP amounted to 2.42.

With `Nc1nc(N)c2ncn([C@H]3C=C[C@@H](CO)O3)c2n1`, the logP was -0.48.

As to `CCCCC(NC(Cc1ccccc1)C(=O)N1CCC(OCOC)CC1)C(=O)NC(CC1CCCCC1)C(O)CC(C(=O)NCCCN1CCOCC1)C(C)C` (stereo not given), the logP was determined as 4.5.

Consider `CNC12CC=CCC1c1ccccc1C2` (stereo not given), for which the logP was 3.28.

`c1ccc(C2(N3CCCCC3)CCCCC2)cc1` came in with a lipophilicity (logP) of 4.69.

`Cc1cc(C(=O)O)ccc1N` displayed a logP of 1.37.

Consider `CCON1C(=O)CC2(CCCC2)C1=O`, for which the logP is 1.26.

With `Cc1cc(=O)c(=O)[nH][nH]1`, the logP is -0.3.

Compound `Clc1ccncc1` returned a logP of 1.28.

`COc1ccc(COCc2cccc(CN3CCOCC3)c2)cc1` came in with a logP of 2.83.

On to `O=C(OCn1c(=O)[nH]cc(F)c1=O)Oc1ccccc1`, for which the logP worked out at 1.11.

Regarding `CCCC(=O)n1c(=O)[nH]cc(F)c1=O`, the logP was found to be 0.67.

Take `O=C(O)C=Cc1ccc(O)cc1`: the logP stood at 1.46.

The compound `NC(=O)Cc1ccc(C(=O)O)cc1` came in with a logP of 0.3.

As to `CCCOc1ccc(OCC(OC(=S)n2ccnc2)C(C)(C)C)cc1` (stereo not given), the logP is 5.03.

For the compound `O=c1[nH]c(=O)n(-c2ccc(Cl)cc2Cl)cc1F`, the logP came to 1.96.
